Reference: patent US6706664B1, “Benzoxazole compounds, process for the preparation thereof and herbicides” (UBE Industries, Ltd., priority 1999, dated 2004)

Columns and labels:
Set-up in all cases: key: 0: normal development; 1: Less damaged; 2: Slightly damaged; 3: Moderately damaged; 4: Severely damaged; 5: All killed
Large crabgrass [1] = test: Foliar spread test for upland field; format: in vivo, Digitaria adscendens; details: foliar spray 500 ppm, 3 weeks, rank vs non-treated
Outline: (§1)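 Two-week-old glasshouse seedlings on volcanic ash soil were treated by foliar spray at 500 ppm, with 0.5% surfactant in the diluent. Effects were graded visually after three weeks, from 0 for no injury to 5 for complete kill.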

bulrush = test: Herbicidal test for paddy field; format: in vivo, Scrips juncoides; details: paddy field pot, 500 g/ha dropwise at 1.5 leaf stage of barnyardgrass, 3 weeks, rank vs non-treated
Outline: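 Under flooded conditions (3 cm water over Ube soil), each compound was delivered by pipet as a diluted wettable powder (0.05% surfactant) at 500 g/ha, timed to 1.5-leaf barnyardgrass. Plants stayed 3 weeks in a 25° C glasshouse before injury was graded from 0 (normal) to 5 (all killed).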

solgum = test: Soil treatment test for upland field; format: in vivo; details: 500 g/ha, glass house 25° C., 3 weeks
Outline: (§2)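 Herbicidal effect graded on a 0–5 scale (0 normal development, 5 all killed) after 3 weeks in a glasshouse at about 25° C. Compound applied as a soil-surface spray at 500 g/ha right after sowing into Ube alluvial soil; spray water contained 0.05% surfactant.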

soybean [2] = test: Soil treatment test for upland field; format: in vivo; details: 500 g/ha, glass house 25° C., 3 weeks
Outline: as §2

sugar beat = test: Soil treatment test for upland field; format: in vivo; details: 500 g/ha, glass house 25° C., 3 weeks
Outline: as §2

green foxtail = test: Foliar spread test for upland field; format: in vivo, Setaria viridis; details: foliar spray 500 ppm, 3 weeks, rank vs non-treated
Outline: as §1

blackgrass = test: Soil treatment test for upland field; format: in vivo, Alopecurus aegualis; details: 500 g/ha, glass house 25° C., 3 weeks
Outline: as §2

Large crabgrass [3] = test: Soil treatment test for upland field; format: in vivo, Digitaria adscendens; details: 500 g/ha, glass house 25° C., 3 weeks
Outline: as §2

cotton = test: Foliar spread test for upland field; format: in vivo; details: foliar spray 500 ppm, 3 weeks, rank vs non-treated
Outline: (§3)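 Scoring used a 0–5 scale, where 0 meant normal development and 5 meant all plants killed, assessed 3 weeks after treatment. Plants had been grown about 2 weeks from seed in volcanic ash soil before a uniform spray at 500 ppm containing 0.5% surfactant.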

soybean [4] = test: Foliar spread test for upland field; format: in vivo; details: foliar spray 500 ppm, 3 weeks, rank vs non-treated
Outline: as §3

morning glory = test: Foliar spread test for upland field; format: in vivo, Ipomoea spps.; details: foliar spray 500 ppm, 3 weeks, rank vs non-treated
Outline: as §1

annual bluegrass [5] = test: Soil treatment test for upland field; format: in vivo, Poa annua; details: 500 g/ha, glass house 25° C., 3 weeks
Outline: as §2

annual bluegrass [6] = test: Foliar spread test for upland field; format: in vivo, Poa annua; details: foliar spray 500 ppm, 3 weeks, rank vs non-treated
Outline: as §1

barnyardgrass = test: Foliar spread test for upland field; format: in vivo, Echinochloa crusgalli; details: foliar spray 500 ppm, 3 weeks, rank vs non-treated
Outline: as §1

SMILES	Effects Large crabgrass (Large crabgrass [1])	Effect Bulrush (bulrush)	Effects Solgum (solgum)	Effects Soybean (soybean [2])	Effects Sugar beat (sugar beat)	Effects Green foxtail (green foxtail)	Effects Blackgrass (blackgrass)	Effects Large crabgrass (Large crabgrass [3])	Effects Cotton (cotton)	Effects Soybean (soybean [4])	Effects Morning glory (morning glory)	Effects Annual bluegrass (annual bluegrass [5])	Effects Annual bluegrass (annual bluegrass [6])	Effects Barnyardgrass (barnyardgrass)
CC(Oc1ccc(F)c(C(F)(F)F)c1)c1nc2cc(Cl)ccc2o1 (stereo not shown) [Compound 137]	1	3	1	0	2	3	3	5	2	3	2	5		
CCC(Oc1ccc(F)c(C(F)(F)F)c1)c1nc2cc(Cl)ccc2o1 (stereo not shown) [Compound 139]	2	5	2	1	5	4	5	5	3	5	5	5	3	2
CCC(Oc1cccc(C(F)(F)F)c1)c1nc2cc(Cl)ccc2o1 (stereo not shown) [Compound 140]	2		1	0	3	2	4	5	3	3	3	5	2	2
CCCC(Oc1ccc(F)c(C(F)(F)F)c1)c1nc2cc(Cl)ccc2o1 (stereo not shown) [Compound 141]	4	5	2	2	5	4	5	5	3	4	4	5	4	4
CCCC(Oc1cccc(C(F)(F)F)c1)c1nc2cc(Cl)ccc2o1 (stereo not shown) [Compound 142, 1-(5-chlorobenzoxazol-2-yl)-1-(3-(trifluoromethyl)phenoxy)butane]	3	3	1	3	5	2	5	5	3	4	3	5	3	2
CCC(Oc1ccc(F)c(C(F)(F)F)c1)c1nc2cc(C(F)(F)F)ccc2o1 (stereo not shown) [Compound 197]	3		2		5	5	5	5	3	5	4	5	2	1
CCCC(Oc1ccc(F)c(C(F)(F)F)c1)c1nc2cc(C(F)(F)F)ccc2o1 (stereo not shown) [Compound 199]	2	5	1	2	5	2	2	5	3	4	4	5	2	2
CCCC(Oc1cccc(C(F)(F)F)c1)c1nc2cc(C(F)(F)F)ccc2o1 (stereo not shown) [Compound 200]	3	2	1	0	5	5	4	5	3	3	3	5	4	2
CCC(Oc1cccc(C(F)(F)F)c1)c1nc2cc(C#N)c(C#N)cc2o1 (stereo not shown) [Compound 315]	2	2	1	1	5	5	5	5			3	5	2	
CCC(Oc1cccc(C(F)(F)F)c1)c1nc2cc(Cl)c(C)cc2o1 (stereo not shown) [Compound 339, 1-(5-chloro-6-methylbenzoxazol-2-yl)-1-(3-(trifluoromethyl)phenoxy)propane]	3	4	1	1	4	2	3	5	3	3	2	5	2	2
CCCC(Oc1cccc(C(F)(F)F)c1)c1nc2cc(F)c(C(F)(F)F)cc2o1 (stereo not shown) [Compound 474]	5		1	2	5	5	5	5			5	5	3	
CCCC(Oc1ccc(F)c(C(F)(F)F)c1)c1nc2cc(F)c(Cl)cc2o1 (stereo not shown) [Compound 494]		3	1	0	5	3	5	5	2		2	5		
CCCC(Oc1cccc(C(F)(F)F)c1)c1nc2cc(F)c(Cl)cc2o1 (stereo not shown) [Compound 497]	2	2	1	1	5	4		5	2			4	2	
CCC(Oc1cccc(C#N)c1)c1nc2cc(F)c(Cl)cc2o1 (stereo not shown) [Compound 498]	3	3	1	1	5	4	4	5				5	2	
